The values below come from US10793525B2, “13-cis-RAMBA retinamides that degrade MNKs for treating cancer” (UNIVERSITY OF MARYLAND, BALTIMORE, priority 2014, dated 2020).

Read-outs that look alike come from different tables or passages of the source.

Data set [1] concerns MDA-MB-231 human breast cancer cells. The note with it: MDA-MB-231 cells; previously reported in Ramalingam S, et al.; read-out: GI50s MDA-MB-231; cited from earlier work.
Data set [2] deals with MDA-MB-468 human breast cancer cells. The conditions noted are these: MDA-MB-468 cells; previously reported in Ramalingam S, et al.; read-out: GI50s MDA-MB-468; cited from earlier work.
Data set [3] concerns SKBR-3 human breast cancer cells. The conditions noted are these: SKBR-3 cells; previously reported in Ramalingam S, et al.; read-out: GI50s SKBR-3; cited from earlier work.
Data set [4] concerns LNCaP human prostate carcinoma cells. The conditions noted are these: previously reported in Ramamurthy V et al., read-out: GI50s LNCaP; cited from earlier work.
Data set [5] deals with CWR22Rv1 human prostate carcinoma cells. The conditions noted are these: previously reported in Ramamurthy V et al., read-out: GI50s CWR22Rv1; cited from earlier work.
For data set [6], the system named is PC-3 human prostate carcinoma cells. The note with it: PC-3 cells; previously reported in Ramamurthy V et al.; read-out: GI50s PC-3; cited from earlier work.
The test system of data set [7] is MCF-7 human breast cancer cells. Put plainly: MTT cell proliferation assay, MCF-7. In kind it is cell-based. The note with it: Homo sapiens, MCF7; MCF-7 cells, MTT, SEM < 10%; read-out: GI50s MCF-7. The source says:
(§1) MCF-7, MDA-MB-231, MDA-MB-468 and SKBR-3 human breast cancer cells and LNCaP, PC-3, and CWR22Rv1 human prostate carcinoma cells (American Type Culture Collection, Manassas, Va., USA) were maintained in RPMI 1640 media (Gibco-Life Technologies, Grand Island, N.Y., USA) supplemented with 10% fetal bovine serum and 1% penicillin/streptomycin. Western blotting was done as mentioned previously,^8, 13b using the following antibodies: AR, Bad, Bax, Bcl-2, eIF4E, Mnk1, Mnk-2, N-cadherin, PARP, peIF4E^ser209 purchased from Cell Signaling Technology, Danvers, Mass., USA. Anti-Mnk2 was purchased from Sigma-Aldrich and normal rabbit IgG, cyclin D1 was from Santa Cruz Biotechnology, CA, USA.
(§2) Cells were plated (2500 cells/well) in 96 well plates and treated with or without specified compounds as described previously.^8a, 12b
(§3) The clinically relevant retinoids, ATRA and 4-HPR and the Mnk inhibitor, cercosporamide were used as comparators in the assays.

For data set [8], the system named is MDA-MB-231 human breast cancer cells. Put plainly: MTT cell proliferation assay, MDA-MB-231. It is filed as cell-based. The conditions noted are these: MDA-MB-231 cells, SEM < 10%, read-out: GI50s MDA-MB-231.
From the text: as §1, §2, §3

In data set [9] the test system is MDA-MB-468 human breast cancer cells. Put plainly: MTT cell proliferation assay, MDA-MB-468. It is filed as cell-based. The note with it: MDA-MB-468 cells, SEM < 10%, read-out: GI50s MDA-MB-468.
From the text: as §1, §2, §3
A general note: Tetrazolium dyes change colour on reduction, which living cells bring about.

Data set [10] deals with SKBR-3 human breast cancer cells. Put plainly: MTT cell proliferation assay, SKBR-3. In kind it is cell-based. The note with it: SK-BR-3, SKBR-3 cells, SEM < 10%, read-out: GI50s SKBR-3.
From the text: as §1, §2, §3

For data set [11], the system named is LNCaP human prostate carcinoma cells. The data set can be described thus: MTT cell proliferation assay, LNCaP. It is filed as cell-based. The note with it: SEM < 10%, read-out: GI50s LNCaP.
From the text: as §1, §2, §3
(§4) The PC-3 cell line was the least sensitive to all the compounds tested.

In data set [12] the test system is CWR22Rv1 human prostate carcinoma cells. Put plainly: MTT cell proliferation assay, CWR22Rv1. It is filed as cell-based. The note with it: SEM < 10%, read-out: GI50s CWR22Rv1.
From the text: as §1, §2, §3, §4

Data set [13] deals with PC-3 human prostate carcinoma cells. The data set can be described thus: MTT cell proliferation assay, PC-3. It is filed as cell-based. The note with it: PC-3 cells, SEM < 10%, read-out: GI50s PC-3.
From the text: as §1, §2, §3, §4

For data set [14], the system named is Mnk1 and 2, peIF4E, eIF4E and cPARP. The data set can be described thus: Western blot of lysates from MCF-7, MDA-MB-231 and MDA-MB-468 cells. It is filed as cell-based, human. The note with it: MCF-7, MDA-MB-231, MDA-MB-468 cells, 24 hours.
From the text: as §1
As we previously reported, the anti-proliferative effects of the 1st generation MNKDAs in BC cells was due to degradation of Mnk1/2 with subsequent depletion of peIF4E and induction of apoptosis.^8a To determine if these compounds modulate Mnk1/2 and related oncogenic proteins, the inventors performed western blot of lysates from MCF-7, MDA-MB-231 and MDA-MB-468 human breast cancer cells treated with Compounds 16, 20, and 22, or with vehicle (DMSO, negative control), or Compound 6 (positive control). Equal protein concentrations from MCF-7 (FIG. 3A), MDA-MB-231 (FIG. 3B) and MDA-MB-468 (FIG. 3C) cells treated for 24 hours with Compounds 16, 20 and 22 at the various concentrations as indicated and Compound 6 (20 μmol/L) were separated by SDS-PAGE and western blots probed with antibodies to Mnk1 and 2, peIF4E, eIF4E and cPARP. Vehicle treated cells were included as control and all blots were reprobed for GAPDH for loading control.
For orientation: Immunoblotting shows a protein as a band on a membrane.

Data set [15] deals with MDA-MB-231 cells. The data set can be described thus: Wound-healing assay, MDA-MB-231 cell migration. In kind it is cell-based, human. The note with it: 5 μM, 24 h. As for the experimental part: (§5) Wound healing assay and matrigel invasion assay were also conducted as described previously using highly metastatic PC-3 cells following treatment with 5 μM of RRs for 24 h.^8a,26
(§6) Based on previous studies with closely related compound,^8 the inhibitory effects of Compounds 16, 20 and 22 on cell migration were evaluated, using the human metastatic BC cell line, MDA-MB-231 by wound-healing assay. MDA-MB-231 cells (5×10^5 cells/well) were seeded on Boyden chamber, grown to confluence and scratches made at experimental tome zero. The cells were treated with indicated compounds (5 μM each) for 24 h. Representative photomicrographs of initial and final wounds are shown at 100× magnification. […] At 24 hours after cell monolayers were wounded, control cells had completely filled in the scratched area.

Data set [16] has as its system fAR, Mnk1/2, peIF4E, cyclin D1 and cleaved PARP. The data set can be described thus: Western blot of lysates from LNCaP cells. It is filed as cell-based, human. The note with it: 0.6-20 μM, 24 hours.
From the text: as §1
Equal protein concentrations from LNCaP cells treated with Compounds 16, 20 and 22 at different concentrations (0.6-20 μM) for 24 hours were separated by SDS-PAGE and western blots probed with antibodies to fAR, Mnk1/2, peIF4E, cyclin D1 and cleaved PARP. Vehicle treated cells were included as a control and all blots were reprobed for β-actin for loading control.

Data set [17] has as its system PC-3 cells. The data set can be described thus: Wound-healing assay, PC-3 cell migration. It is filed as cell-based, human. The note with it: 5 μM, 24 hours. As for the experimental part:
as §5
as §6, with “PC” for “BC”, “PC-3” for “MDA-MB-231”, “hours.” for “h.”

Data set [18] concerns MDA-MB-231 xenograft tumors. Put plainly: MDA-MB-231 anti-tumor efficacy study (xenograft). In kind it is in vivo. The method, then:
All animal studies were performed according to the guidelines and approval of the Animal Care Committee of the University of Maryland School of Medicine, Baltimore (UMB). Female Athymic Nude mice or male SCID (Charles Rivers Laboratories or UMB facilities) at 4-6 weeks of age were maintained in a pathogen-free environment. MDA-MB-231 (10×10^6) cells were subcutaneously implanted into Athymic Nude mice and CWR22Rv1 (1×10^6) cells into male SCID mice. Mice bearing established tumors (˜100 mm^3) were randomized into treatment groups of 6 and dosed with vehicle (40% β-cyclodexdrin in ddH2O), or compounds 20 and 22 (i.p., formulated in 40% β-cyclodexdrin in ddH2O, once daily, 5 days a week for 28 days).
The National Cancer Institute (NCI) criteria^23 were used to determine tumor growth efficacy of our compounds. Thus, percent test or treatment/control (% T/C), defined as the ratio of the median tumor volume for the treated group versus control group, was calculated as % T/C=[(median tumor volume of treated group at day 28)/(median tumor volume of control group at day 28)]×100.
Indeed, the two compounds were equipotent (FIG. 9A). […] Representative photos of the tumor-bearing mice in the control and the two treatment groups at termination of experiment (day 28) are presented in FIG. 9B.

For data set [19], the system named is Mnk-1, peIF4E and their downstream targets. Put plainly: Molecular analysis of MDA-MB-231 tumors. The conditions noted are these: MDA-MB-231 tumors from treated mice. In kind it is in vivo. The text has this: To assess their in vivo mode of action, we evaluated the effects of Compounds 20 and 22 on Mnk-1, peIF4E and their downstream targets.
The mark [20] stands for this setting: MDA-MB-231 xenograft mice, i.p. 20 mg/kg 5×/week over 28 days.

For the compound `CC1=C(/C=C/C(C)=C/C=C/C(C)=C/C(=O)O)C(C)(C)CCC1` [ATRA, all-trans retinoic acid], the IC50 in data set [1] was 14.1 µM; in [2], 14.1 µM; in data set [3], 22.9 µM; in data set [4] it was 47.9 µM; in data set [5], 25.1 µM; in data set [6] it was 36.3 µM.

Take `CC(=O)C1=C(O)C=C2Oc3c(C(N)=O)c(O)cc(O)c3[C@]2(C)C1=O` [Cerco., cercosporamide]: the IC50 in data set [1] was 43.6 µM; in data set [2], 47.9 µM; in data set [3], 26 µM.

Take `CC1=C(/C=C/C(C)=C/C=C/C(C)=C\C(=O)NCc2ccc(O)cc2)C(C)(C)CCC1n1ccnc1` (stereo not shown) [Compound 22, (2Z,4E,6E,8E)-9-(3-(1H-imidazol-1-yl)-2,6,6-trimethylcyclohex-1-en-1-yl)-N-(4-hydroxybenzyl)-3,7-dimethylnona-2,4,6,8-tetraenamide]: the IC50 in [7] worked out at 0.16 µM. Moreover, in data set [8], the IC50 came to 2.23 µM. Moreover, the IC50 in data set [9] came out at 2.7 µM. In data set [10], the IC50 is 2.45 µM. Also, the IC50 in data set [11] is 1.69 µM. The IC50 in data set [12] was determined as 1.86 µM. In data set [13], the IC50 amounted to 3.54 µM. In data set [14], the “expression of total eIF4E” value is “no noticeable effects”; the “expressions of Mnk1, Mnk2 and peIF4E” value is “significantly and dose-dependently, reduced”; the “formation of c-PARP (apoptosis)” value is “dose-dependent formation of c-PARP”. Moreover, the “migration of MDA-MB-231 cells” value in [15] is on record as “significantly inhibited migration”. In [16], the “cleaved PARP (c-PARP)” value is recorded as “induced cleaved PARP”; the “cyclin D1” value is “significant depletion”; the “expression of total eIF4E” value is reported as “no noticeable effects”; the “expressions of fAR, Mnk1 and Mnk2” value is “significantly and in a dose-dependent fashion, reduced”. Also, in [17], the “migration of PC-3 cells” value is listed as “significantly inhibited migration”. Moreover, in data set [18] (setting [20]), the body weight result was “did not lose body weight” and the “signs of toxicity / adverse events” value is “no apparent adverse events”. In addition, the “suppression of tumor growth” value in [18] (MDA-MB-231 xenografts, i.p. 20 mg/kg 5×/week over 28 days) turned out to be 85.4%. In addition, the “% T/C (treated/control median tumor volume)” value in data set [18] (MDA-MB-231 xenografts, i.p. 20 mg/kg 5×/week, day 28) is 14.6%. In addition, in [19], the “Mnk1/2, peIF4E, cyclin D1 and Bcl-2 in tumors” value is listed as “depletion”; the “pro-apoptotic proteins Bad and Bax in tumors” value is “up-regulation”.
